Data published in patent US9661850B2, “Methods of soil pest control” (Syngenta Participations AG, priority 2012, dated 2017).

Experiments:
Type in all cases: in vivo
[1] = system: Diabrotica balteata (Corn Rootworm); assay: Diabrotica balteata seed treatment test, larval mortality; settings: treated corn seeds, L3 larvae, 6 days incubation
Method: Diabrotica Balteata (Corn Rootworm)
Treated corn seeds are sown in a 350 ml pot filled with soil. Two weeks after sowing corn seedlings are infested with L3 larvae of Diabrotica balteata. After an incubation period of 6 days survived larvae are counted.

Agriotes sp. (Wireworms) [2] = assay: Agriotes sp. (wireworms) seed treatment test; settings: treated corn seeds, 1 mg/seed, 14 days incubation
Method: Treated corn seeds are sown in a 350 ml pot filled with soil. One week after sowing corn seedlings are infested with wireworms. After an incubation period of 14 days healthy and affected larvae (intoxicated, moribund, dead) are counted.

Agriotes sp. (Wireworms) [3] = assay: Agriotes sp. (wireworms) drench soil test with maize seedlings; settings: 14 days after treatment
Method: Plastic beakers are prepared with 100 ml drench soil. Afterwards 12.5 ml compound solution is mixed in each plastic beaker and three maize seedlings are added. At the same day five wireworms are placed into each plastic beaker and these are covered up with a lid. Fourteen days after treatment the number of dead and moribund wireworms are evaluated. Wireworms are assessed as moribund if they were not able to bury into the soil in one hour after having been put onto the soil surface.

[4] = system: Diabrotica balteata (Corn Rootworm); assay: Diabrotica balteata in-furrow application, plant damage on maize; settings: L2 larvae, 6 days after infestation
Method: (§1) Diabrotica Balteata (Corn Rootworm):
(§2) Plastic boxes (17×27×22 cm) are filled with 8 L of drench soil and 6 maize seeds are sown into a furrow. 10 ml of spray solution are applied with a hand sprayer into the furrow on the planted seeds and the furrow is closed afterwards. Two weeks after sowing each box is infested with 15 Diabrotica balteata L2 larvae. 6 days after infestation the plant damage is assessed. Plants are considered as either damaged or healthy. Dead plants, plants with hollow stems or entry holes are considered as damaged. The test is carried out with five replicates (boxes) per treatment. For in-furrow application the control is replicated five times with the application of water.
(§3) As six seeds are used per replicate, the total amount of active ingredient applied in furrow is six times the rate per seed in the seed treatment test.

[5] = system: Diabrotica balteata (Corn Rootworm); assay: Diabrotica balteata seed treatment, plant damage on maize; settings: L2 larvae, 6 days after infestation
Method: as §1, §2
For the assessment as seed treatment 6 treated seeds are planted 0.5 cm deep into the soil. Exactly the same setup is used as with the in furrow treatment described above except that no spray solution is applied. For seed treatment the control is replicated five times without seed coating.
as §3

| Compound | % Larval mortality ([1]; 0.3 mg/seed) [%] | % Larval mortality ([1]; 1 mg/seed) [%] | also measured |
| --- | --- | --- | --- |
| Cc1cc(C2=NOC(c3cc(Cl)c(Cl)c(Cl)c3)(C(F)(F)F)C2)ccc1C(=O)NC1CON(CC(F)(F)F)C1=O (mixture of isomers) [Compound A1] | 87 |  |  |
| Cc1cc(C2=NOC(c3cc(Cl)cc(Cl)c3)(C(F)(F)F)C2)ccc1C(=O)NC1CON(C)C1=O (mixture of isomers) [Compound A2] | 96 |  |  |
| CCN1OCC(NC(=O)c2ccc(C3=NOC(c4cc(Cl)c(F)c(Cl)c4)(C(F)(F)F)C3)cc2C)C1=O (mixture of isomers) [Compound A5] | 96 |  |  |
| Cc1cc(C2=NOC(c3cc(Cl)cc(Cl)c3)(C(F)(F)F)C2)ccc1C(=O)NC1CON(CC(F)F)C1=O (mixture of isomers) [Compound A6] | 87 |  |  |
| Cc1cc(C2=NOC(c3cc(Cl)cc(Cl)c3)(C(F)(F)F)C2)ccc1C(=O)NC1CON(CC(F)(F)F)C1=O (mixture of isomers) [Compound A8] | 79 |  | % Mortality and moribund/intoxicated (Agriotes sp. (Wireworms) [2]): 100% |
| CCN1OCC(NC(=O)c2ccc(C3=NOC(c4cc(Cl)cc(Cl)c4)(C(F)(F)F)C3)cc2C)C1=O (mixture of isomers) [Compound A9] |  |  | % Mortality and moribund/intoxicated (Agriotes sp. (Wireworms) [2]): 25%; % Moribund & dead (Agriotes sp. (Wireworms) [3]; application rate 0.8 ppm): 50%; % Moribund & dead (Agriotes sp. (Wireworms) [3]; application rate 3 ppm): 75%; % Moribund & dead (Agriotes sp. (Wireworms) [3]; application rate 12.5 ppm): 100% |
| CCN1OCC(NC(=O)c2ccc(C3=NOC(c4cc(C(F)(F)F)c(Cl)c(C(F)(F)F)c4)(C(F)(F)F)C3)cc2C)C1=O (mixture of isomers) [Compound A15] | 100 |  |  |
| CCN1OCC(NC(=O)c2ccc(C3=NOC(c4cc(F)cc(Cl)c4)(C(F)(F)F)C3)cc2C)C1=O (mixture of isomers) [Compound A22] |  | 92 |  |
| CCN1OCC(NC(=O)c2ccc(C3=NOC(c4cc(Cl)c(Cl)c(Cl)c4)(C(F)(F)F)C3)cc2C)C1=O (mixture of isomers) [Compound A23] |  | 100 |  |
| CCN1OCC(NC(=O)c2ccc(C3=NCC(c4cc(Cl)c(Cl)c(Cl)c4)(C(F)(F)F)C3)cc2C)C1=O (racemic) [Compound C3] |  | 100 |  |
| Cc1cc(N2CCC(c3cc(Cl)cc(Cl)c3)(C(F)(F)F)C2)ccc1C(=O)NC1CON(CC(F)(F)F)C1=O (racemic) [Compound D1] | 83 |  |  |
| Cc1cc(C2=NO[C@@](c3cc(Cl)cc(Cl)c3)(C(F)(F)F)C2)ccc1C(=O)N[C@@H]1CON(CC(F)(F)F)C1=O [Compound 1] |  |  | Reduction in plant damage compared to control (in-furrow application) ([4]; 0.1 mg AI per seed): 67%; Reduction in plant damage compared to control (in-furrow application) ([4]; 0.5 mg AI per seed): 95%; Reduction in plant damage compared to control (seed treatment) ([5]; 0.1 mg AI per seed): 25%; Reduction in plant damage compared to control (seed treatment) ([5]; 0.5 mg AI per seed): 50% |
| CCN1OC[C@@H](NC(=O)c2ccc(C3=NO[C@@](c4cc(Cl)c(F)c(Cl)c4)(C(F)(F)F)C3)cc2C)C1=O [Compound 2] |  |  | Reduction in plant damage compared to control (in-furrow application) ([4]; 0.1 mg AI per seed): 95%; Reduction in plant damage compared to control (in-furrow application) ([4]; 0.5 mg AI per seed): 91%; Reduction in plant damage compared to control (seed treatment) ([5]; 0.1 mg AI per seed): 35%; Reduction in plant damage compared to control (seed treatment) ([5]; 0.5 mg AI per seed): 75% |
| CCN1OC[C@@H](NC(=O)c2ccc(C3=NO[C@@](c4cc(Cl)cc(Br)c4)(C(F)(F)F)C3)cc2C)C1=O [Compound A11] |  | 100 |  |
| CCN1OC[C@@H](NC(=O)c2ccc(C3=NO[C@@](c4cc(Cl)cc(C(F)(F)F)c4)(C(F)(F)F)C3)cc2C)C1=O [Compound A12] | 88 |  |  |
| Cc1cc(C2=NO[C@@](c3cc(Cl)cc(Cl)c3)(C(F)(F)F)C2)ccc1C(=O)N[C@@H]1CON(CC(F)F)C1=O [Compound A14] |  | 100 |  |
| Cc1cc(C2=NO[C@@](c3cc(Cl)cc(Cl)c3)(C(F)(F)F)C2)ccc1C(=O)N[C@@H]1CON(CC(F)(F)F)C1=O [Compound A16] |  | 100 | % Mortality and moribund/intoxicated (Agriotes sp. (Wireworms) [2]): 100%; % Moribund & dead (Agriotes sp. (Wireworms) [3]; application rate 0.8 ppm): 100%; % Moribund & dead (Agriotes sp. (Wireworms) [3]; application rate 3 ppm): 100%; % Moribund & dead (Agriotes sp. (Wireworms) [3]; application rate 12.5 ppm): 100% |
| CCN1OC[C@@H](NC(=O)c2ccc(C3=NO[C@@](c4cc(Cl)cc(Cl)c4)(C(F)(F)F)C3)cc2C)C1=O [Compound A17] |  | 83 | % Mortality and moribund/intoxicated (Agriotes sp. (Wireworms) [2]): 80%; % Moribund & dead (Agriotes sp. (Wireworms) [3]; application rate 0.8 ppm): 100%; % Moribund & dead (Agriotes sp. (Wireworms) [3]; application rate 3 ppm): 100%; % Moribund & dead (Agriotes sp. (Wireworms) [3]; application rate 12.5 ppm): 100% |
| CCN1OC[C@@H](NC(=O)c2ccc(C3=NO[C@@](c4cc(Cl)c(F)c(Cl)c4)(C(F)(F)F)C3)cc2C)C1=O [Compound A18] | 96 |  |  |
| CCN1OC[C@@H](NC(=O)c2ccc(C3=NO[C@@](c4cc(Cl)c(Cl)c(Cl)c4)(C(F)(F)F)C3)cc2C)C1=O [Compound A19] |  | 100 |  |
| Cc1cc(C2=NO[C@@](c3cc(Cl)c(F)c(Cl)c3)(C(F)(F)F)C2)ccc1C(=O)N[C@@H]1CON(CC(F)(F)F)C1=O [Compound A20] |  | 100 |  |
| Cc1cc(C2=NO[C@@](c3cc(Cl)c(Cl)c(Cl)c3)(C(F)(F)F)C2)ccc1C(=O)N[C@@H]1CON(CC(F)(F)F)C1=O [Compound A21] |  | 100 |  |
| Cc1cc(C2=NCC(c3cc(Cl)cc(Cl)c3)(C(F)(F)F)C2)ccc1C(=O)NC1CON(CC(F)(F)F)C1=O (stereo not drawn) [Compound C1] |  | 100 |  |
| CCN1OCC(NC(=O)c2ccc(C3=NCC(c4cc(Cl)cc(Cl)c4)(C(F)(F)F)C3)cc2C)C1=O (stereo not drawn) [Compound C2] |  | 50 |  |
